Assay results taken from patent US9174995B2, “Pyrrolotriazinone derivatives” (Merck Patent GmbH, priority 2012, dated 2015).

What was measured:
[1] = tested on: Tankyrases; assay: Cellular inhibition of Tankyrase: increase of Axin2 level in DLD1 cells (Luminex); format: cell-based; conditions: 24 hours, read-out: EC50 tankyrase ½ (cell assay)
Procedure: Measurement of Cellular Inhibition of Tankyrase
Since Tankyrases have been described to modulate cellular level of Axin2 (Huang et al., 2009; Nature) the increase of Axin2 level is used as readout for determination of cellular inhibition of Tankyrases in a Luminex based assay.
Cells of the colon carcinoma cell line DLD1 are plated in 96 well plates with 1.5×10^4 cells per well. Next day, cells are treated with a serial dilution of test compound in seven steps as triplicates with a final DMSO concentration of 0.3%. After 24 hours, cells are lysed in lysis buffer (20 mM Tris/HCl pH 8.0, 150 mM NaCl, 1% NP40, 10% Glycerol) and lysates are cleared by centrifugation through a 96 well filter plate (0.65 μm). Axin2 protein is isolated from cell lysates by incubation with a monoclonal anti-Axin2 antibody (R&D Systems #MAB6078) that is bound to fluorescent carboxybeads. Then, bound Axin2 is specifically detected with a polyclonal anti-Axin2 antibody (Cell Signaling #2151) and an appropriate PE-fluorescent secondary antibody. The amount of isolated Axin2 protein is determined in a Luminex^200 machine (Luminex Corporation) according to the manufacturer's instruction by counting 100 events per well. Inhibition of Tankyrase by test compounds results in higher levels of Axin2 which directly correlates with an increase of detectable fluorescence. As controls cells are treated with solvent alone (neutral control) and with a Tankyrase reference inhibitor IWR-2 (3E-06 M) which refers as control for maximum increase of Axin2. For analysis, the obtained data are normalized against the untreated solvent control and fitted for determination of the EC50 values using the Assay Explorer software (Accelrys).

[2] = biological target: T1, GST-tagged Tankyrase-2 (873-1166 aa) (Homo sapiens, UniProt Q9H2K2); assay: Tankyrase 2 autoparsylation assay (HTRF enzyme assay); format: biochemical
T1 construct: GST-tagged Tankyrase-2 (873-1166 aa)
T1 sequence (Q9H2K2 873-1166): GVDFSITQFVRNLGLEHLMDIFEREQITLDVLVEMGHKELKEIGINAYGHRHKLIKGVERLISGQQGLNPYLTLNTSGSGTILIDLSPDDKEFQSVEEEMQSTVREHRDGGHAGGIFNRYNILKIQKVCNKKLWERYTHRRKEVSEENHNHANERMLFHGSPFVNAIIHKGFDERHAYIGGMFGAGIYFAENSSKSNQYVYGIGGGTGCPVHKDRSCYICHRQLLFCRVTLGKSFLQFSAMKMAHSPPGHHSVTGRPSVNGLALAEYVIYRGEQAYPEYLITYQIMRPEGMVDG
Procedure: Biochemical Activity Testing of Tankyrase 1 and 2: Autoparsylation Assay
(§1) The autoparsylation assay is run in two steps: the enzymatic reaction in which GST-tagged Tankyrase-1, resp Tankyrase-2 transferred biotinylated ADP-ribose to itself from biotinylated NAD as co-substrate and the detection reaction where a time resolved FRET between cryptate labelled anti-GST bound to the GST tag of the enzyme and Xlent® labelled-streptavidin bound the biotin-parsylation residue is analysed. The autoparsylation activity was detectable directly via the increase in HTRF signal.
The autoparsylation assay is performed as 384-well HTRF® (Cisbio, Codolet, France) assay format in Greiner low volume nb 384-well microtiter plates and is used for high throughput screen. 250 nM GST-tagged Tankyrase-1 (1023-1327 aa), respectively about 250 nM GST-tagged Tankyrase-2 (873-1166 aa) and 5 μM bio-NAD (Biolog, Life science Inst., Bremen, Germany) as co-substrate are incubated in a total volume of 5 μl (50 mM HEPES, 4 mM Mg-chloride, 0.05% Pluronic F-68, 1.4 mM DTT, 0.5% DMSO, pH 7.7) in the absence or presence of the test compound (10 dilution concentrations) for 90 min at 30° C. The reaction is stopped by the addition of 1 μl 50 mM EDTA solution. 2 μl of the detection solution (1.6 μM SA-Xlent® (Cisbio, Codolet, France), 7.4 nM Anti-GST-K® (Eu-labelled anti-GST, Cisbio, Codolet, France) in 50 mM HEPES, 800 mM KF, 0.1% BSA, 20 mM EDTA, 0.1% CHAPS, pH 7.0) are added. After 1 h incubation at room temperature the HTRF is measured with an Envision multimode reader (Perkin Elmer LAS Germany GmbH) at excitation wavelength 340 nm (laser mode) and emission wavelengths 615 nm and 665 nm. The ratio of the emission signals is determined. The full value used is the inhibitor-free reaction. The pharmacological zero value used is XAV-939 (Tocris) in a final concentration of 5 μM. The inhibitory values (IC50) are determined using either the program Symyx Assay Explorer® or Condosseo® from GeneData.

[3] = biological target: T2, His-tagged Parp-1 (Homo sapiens, UniProt P09874); assay: PARP-1 autoparsylation assay (HTRF); format: biochemical; conditions: PARP-1 autoparsylation HTRF assay
T2 construct: purchased Enzo Life Sciences GmbH, Lörrach, Germany
T2 sequence (P09874 whole entry): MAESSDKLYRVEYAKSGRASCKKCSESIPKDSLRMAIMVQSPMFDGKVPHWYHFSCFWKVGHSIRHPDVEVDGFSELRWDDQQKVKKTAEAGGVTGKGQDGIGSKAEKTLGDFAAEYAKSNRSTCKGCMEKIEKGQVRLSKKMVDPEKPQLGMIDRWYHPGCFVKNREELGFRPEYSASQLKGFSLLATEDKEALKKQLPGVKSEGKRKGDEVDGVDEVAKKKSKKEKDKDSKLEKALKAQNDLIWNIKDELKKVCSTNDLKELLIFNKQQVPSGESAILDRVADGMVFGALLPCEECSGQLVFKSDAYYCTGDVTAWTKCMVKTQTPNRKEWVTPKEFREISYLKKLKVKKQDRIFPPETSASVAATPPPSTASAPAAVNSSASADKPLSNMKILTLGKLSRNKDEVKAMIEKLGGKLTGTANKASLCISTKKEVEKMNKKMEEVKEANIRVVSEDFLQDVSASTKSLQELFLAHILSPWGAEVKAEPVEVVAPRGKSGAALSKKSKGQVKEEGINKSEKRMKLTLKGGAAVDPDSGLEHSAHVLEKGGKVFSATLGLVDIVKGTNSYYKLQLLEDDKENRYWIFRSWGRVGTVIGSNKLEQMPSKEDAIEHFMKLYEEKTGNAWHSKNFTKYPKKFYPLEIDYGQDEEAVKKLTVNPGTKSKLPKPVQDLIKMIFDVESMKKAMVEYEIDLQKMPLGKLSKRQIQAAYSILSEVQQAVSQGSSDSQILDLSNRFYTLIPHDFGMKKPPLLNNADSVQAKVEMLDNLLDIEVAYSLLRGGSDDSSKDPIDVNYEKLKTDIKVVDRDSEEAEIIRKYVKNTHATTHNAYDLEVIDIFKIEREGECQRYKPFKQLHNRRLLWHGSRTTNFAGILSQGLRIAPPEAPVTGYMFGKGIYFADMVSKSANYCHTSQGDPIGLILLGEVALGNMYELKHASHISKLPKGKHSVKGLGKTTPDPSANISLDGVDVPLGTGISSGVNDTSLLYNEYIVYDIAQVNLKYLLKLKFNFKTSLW
Source text: Description of the PARP1 Assay
Biochemical Activity Testing of PARP-1: Autoparsylation Assay
as §1, with “His-tagged Parp-1 transfers” for “GST-tagged Tankyrase-1, resp Tankyrase-2 transferred”, “ADP-ribose/ADP-ribose” for “ADP-ribose”, “NAD/NAD” for “NAD”, “anti-His antibody” for “anti-GST”, “His” for “GST”, “is” for “was”
The autoparsylation assay is performed as 384-well HTRF® (Cisbio, Codolet, France) assay format in Greiner low volume nb 384-well microtiter plates. 35 nM His-tagged Parp-1 (human, recombinant, Enzo Life Sciences GmbH, Lörrach, Germany) and a mixture of 125 nM bio-NAD (Biolog, Life science Inst., Bremen, Germany) and 800 nM NAD as co-substrate are incubated in a total volume of 6 μl (100 mM Tris/HCl, 4 mM Mg-chloride, 0.01% IGEPAL® CA630, 1 mM DTT, 0.5% DMSO, pH 8, 13 ng/μl activated DNA (BPS Bioscience, San Diego, US)) in the absence or presence of the test compound (10 dilution concentrations) for 150 min at 23° C. The reaction is stopped by the addition of 4 μl of the Stop/detection solution (70 nM SA-Xlent® (Cisbio, Codolet, France), 2.5 nM Anti-His-K® (Eu-labelled anti-His, Cisbio, Codolet, France) in 50 mM HEPES, 400 mM KF, 0.1% BSA, 20 mM EDTA, pH 7.0). After 1 h incubation at room temperature the HTRF is measured with an Envision multimode reader (Perkin Elmer LAS Germany GmbH) at excitation wavelength 340 nm (laser mode) and emission wavelengths 615 nm and 665 nm. The ratio of the emission signals is determined. The full value used is the inhibitor-free reaction. The pharmacological zero value used is Olaparib (LClabs, Woburn, US) in a final concentration of 1 μM. The inhibitory values (IC50) are determined using either the program Symyx Assay Explorer® or Condosseo® from GeneData.

Structure (SMILES) | EC50 [1] [nM] | IC50 [2] [nM] | IC50 [3] [nM]
CC(C)(O)c1ccc(-c2nn3cccc3c(=O)[nH]2)cc1 [Compound A5, 2-[4-(1-hydroxy-1-methyl-ethyl)-phenyl]-3H-pyrrolo[2,1-f][1,2,4]triazin-4-one] | 300 to 3000 | < 300 | 3000 to 50000
Cn1cc(-c2ccc(-c3nn4cccc4c(=O)[nH]3)cc2)cn1 [Compound A7, 2-[4-(1-methyl-1H-pyrazol-4-yl)-phenyl]-3H-pyrrolo[2,1-f][1,2,4]triazin-4-one] | 300 to 3000 | 300 to 3000 | 3000 to 50000
Cc1cc2c(=O)[nH]c(-c3ccc(C(C)(C)O)cc3)nn2c1 [Compound A11, 2-[4-(1-hydroxy-1-methyl-ethyl)phenyl]-6-methyl-3H-pyrrolo[2,1-f][1,2,4]triazin-4-one] | 300 to 3000 | < 300 | 300 to 3000
CC(C)(O)c1ccc(-c2nn3cc(F)cc3c(=O)[nH]2)cc1 [Compound A12, 6-fluoro-2-[4-(1-hydroxy-1-methyl-ethyl)phenyl]-3H-pyrrolo[2,1-f][1,2,4]triazin-4-one] | 300 to 3000 | < 300 | 300 to 3000
Cc1cc2c(=O)[nH]c(-c3ccc(-c4cnn(C)c4)cc3)nn2c1 [Compound A13, 6-methyl-2-[4-(1-methylpyrazol-4-yl)phenyl]-3H-pyrrolo-[2,1-f][1,2,4]triazin-4-one] | 300 to 3000 | < 300 | 3000 to 50000
CCC(O)(CC)c1ccc(-c2nn3cccc3c(=O)[nH]2)cc1 [Compound A14, 2-[4-(1-ethyl-1-hydroxy-propyl)-phenyl]-3H-pyrrolo[2,1-f][1,2,4]triazin-4-one] | < 300 | < 300 | 3000 to 50000
CC(C)(OCCO)c1ccc(-c2nn3cccc3c(=O)[nH]2)cc1 [Compound A15, 2-{4-[1-(2-hydroxy-ethoxy)-1-methyl-ethyl]-phenyl}-3H-pyrrolo[2,1-f][1,2,4]triazin-4-one] | 300 to 3000 | < 300 | 3000 to 50000
CC(C)(O)c1ccc(-c2nn3cc(Cl)cc3c(=O)[nH]2)cc1 [Compound A18, 6-chloro-2-[4-(1-hydroxy-1-methyl-ethyl)-phenyl]-3H-pyrrolo[2,1-f][1,2,4]triazin-4-one] | 300 to 3000 | < 300 | 3000 to 50000
O=c1[nH]c(-c2ccc(C3(O)CCCC3)cc2)nn2cccc12 [Compound A21, 2-[4-(1-hydroxy-cyclopentyl)-phenyl]-3H-pyrrolo[2,1-f][1,2,4]-triazin-4-one] | 300 to 3000 | < 300 | 3000 to 50000
